Experimental data as given in US20020049223A1, “Quinoline and naphthyridine carboxylic acid antibacterials” (priority 1999, published 2002).

Key:
Experiment in all cases: Assay B: in vitro antibacterial activity, broth microdilution MIC (NCCLS)
Type in all cases: cell-based
[1] = tested on: Enterococcus faecalis PIU 1967; conditions: Table 2, Assay B, cation-adjusted Mueller Hinton broth, 35° C., 16 to 20 hr; code B = Enterococcus faecalis PIU 1967; unit assumed
Method: (§1) Assay B. Determination of Biological Activity In Vitro Assay of Antibacterial Activity
(§2) Representative compounds of the invention were assayed in vitro for antibacterial activity. The susceptibilities of aerobic, nonfastidious species were determined visually by broth microdilution as described by the National Committee for Clinical Laboratory Standards (NCCLS) (National Committee for Clinical Laboratory Standards. 1997. Methods for dilution antimicrobial susceptibility tests for bacteria that grow aerobically. Approved standard M7-A4. National Committee for Clinical Laboratory Standards. Wayne, Pa.). In brief, serial two-fold dilutions of test compounds were made in cation-adjusted Mueller Hinton broth at two-times the final concentration. Inocula were prepared from overnight cultures of test strains. Tests were inoculated with a suspension of bacteria in Mueller Hinton broth to achieve a final density of approximately 5×10^5 CFU/mL. Tests were incubated at 35° C. in ambient air for 16 to 20 hr. Minimum Inhibitory Concentrations (MICs) were determined as the lowest drug concentration completely inhibiting growth. Ciprofloxacin was included as a control. For testing S. pneumoniae, the cation-adjusted Mueller Hinton broth was supplemented with 3% lysed horse blood and the incubation period was extended to 20 to 24 hr. For testing H. influenzae, the cation-adjusted Mueller Hinton broth was supplemented with 5 g/L yeast extract, […] and 15 mg/L NAD and incubation was extended to 20 to 24 hr..

[2] = tested on: Escherichia coli JUHL; conditions: Table 2, Assay B, cation-adjusted Mueller Hinton broth, 35° C., 16 to 20 hr; code D = Escherichia coli JUHL; unit assumed
Method: as §1, §2

[3] = tested on: Staphylococcus aureus ATCC 6538P; conditions: Table 2, Assay B, cation-adjusted Mueller Hinton broth, 35° C., 16 to 20 hr; code A = Staphylococcus aureus ATCC 6538P; unit assumed
Method: as §1, §2

[4] = tested on: Haemophilus influenzae DILL AMP R; conditions: Table 2, Assay B, Mueller Hinton broth with yeast extract, hematin and NAD, 20 to 24 hr; code E = Haemophilus influenzae DILL AMP R; unit assumed
Method: as §1, §2

[5] = tested on: Streptococcus pneumoniae ATCC 6303; conditions: Table 2, Assay B, Mueller Hinton broth with 3% lysed horse blood, 20 to 24 hr; code F = Streptococcus pneumoniae ATCC 6303; unit assumed
Method: as §1, §2

| SMILES | Antibacterial Activity (MIC's), B [1] [µg/mL] | Antibacterial Activity (MIC's), D [2] [µg/mL] | Antibacterial Activity (MIC's), A [3] [µg/mL] | Antibacterial Activity (MIC's), E [4] [µg/mL] | Antibacterial Activity (MIC's), F [5] [µg/mL] |
| --- | --- | --- | --- | --- | --- |
| Cc1c(-c2cc3c(s2)C(N)CCC3)c(F)cc2c(=O)c(C(=O)O)cn(C3CC3)c12.Cl (stereo not drawn) [Example 368, 7-(7-amino-4,5,6,7-tetrahydro-1-benzothien-2-yl)-1-cyclopropyl-6-fluoro-8-methyl-4-oxo-1,4-dihydroquinoline-3-carboxylic acid hydrochloride] | 0.06 | 0.03 | 0.015 | ≤ 0.004 | 0.03 |
| COc1c(-c2cc3c(s2)C(O)C(F)CC3)ccc2c(=O)c(C(=O)O)cn(C3CC3)c12 (stereo not drawn) [Example 240, 1-cyclopropyl-7-(6-fluoro-7-hydroxy-4,5,6,7-tetrahydro-1-benzothien-2-yl)-8-methoxy-4-oxo-1,4-dihydro-3-quinolinecarboxylic acid] | 0.06 | 0.5 | 0.004 | 0.03 | 1 |
| COc1c(-c2cc3c(s2)C(N)C(F)(F)CC3)ccc2c(=O)c(C(=O)O)cn(C3CC3)c12.Cl (stereo not drawn) [Example 244, 7-(7-amino-6,6-difluoro-4,5,6,7-tetrahydro-1-benzothien-2-yl)-1-cyclopropyl-8-methoxy-4-oxo-1,4-dihydro-3-quinolinecarboxylic acid hydrochloride] | 0.125 | 1 | ≤ 0.004 | 0.06 | 1 |
| COc1c(-c2cc3c(s2)CC(NC(C)=O)C3)ccc2c(=O)c(C(=O)O)cn(C3CC3)c12 (stereo not drawn) [Example 252, 7-(5-(acetylamino)-5,6-dihydro-4H-cyclopenta[b]thien-2-yl)-1-cyclopropyl-8-methoxy-4-oxo-1,4-dihydro-3-quinolinecarboxylic acid] | 1 | 4 | 0.5 | 0.25 | 1 |
| CON=C1CCc2cc(-c3ccc4c(=O)c(C(=O)O)cn(C5CC5)c4c3OC)sc2C1 [Example 66, 1-cyclopropyl-8-methoxy-7-((6E/Z)-6-(methoxyimino)-4,5,6,7-tetrahydro-1-benzothien-2-yl)-4-oxo-1,4-dihydro-3-quinolinecarboxylic acid] | 0.5 | 2 | 0.06 | 0.5 | 0.5 |
| COc1c(-c2cc3c(s2)CC(=NOCc2ccccc2)C3)ccc2c(=O)c(C(=O)O)cn(C3CC3)c12 [Example 255] | 4 | 32 | 0.5 | 2 | 8 |
| COc1c(-c2cc3c(s2)CCCC3NCc2cccnc2)ccc2c(=O)c(C(=O)O)cn(C3CC3)c12.Cl.Cl (stereo not drawn) [Example 94, 1-cyclopropyl-8-methoxy-4-oxo-7-(4-((3-pyridinylmethyl)amino)-4,5,6,7-tetrahydro-1-benzothien-2-yl)-1,4-dihydro-3-quinolinecarboxylic acid dihydrochloride] | 1 | 1 | 0.125 | 0.25 | 0.5 |
| CON=C1Cc2cc(-c3ccc4c(=O)c(C(=O)O)cn(C5CC5)c4c3OC)sc2C1 [Example 248, 1-cyclopropyl-8-methoxy-7-((5E/Z)-5-(methoxyimino)-5,6-dihydro-4H-cyclopenta[b]thien-2-yl)-4-oxo-1,4-dihydro-3-quinolinecarboxylic acid] | 0.25 | 2 | 0.03 | 0.5 | 0.5 |
| COc1c(-c2cc3c(s2)CC(N)CC3)ccc2c(=O)c(C(=O)O)cn(C3CC3)c12.O=C(O)C(F)(F)F (stereo not drawn) [Example 71, 7-(6-amino-4,5,6,7-tetrahydro-1-benzothien-2-yl)-1-cyclopropyl-8-methoxy-4-oxo-1,4-dihydro-3-quinolinecarboxylic acid, trifluoroactic acid salt] | 0.03 | 0.06 | 0.03 | 0.015 | 0.015 |

Next, values leading:

| Antibacterial Activity (MIC's), B [1] [µg/mL] | Antibacterial Activity (MIC's), D [2] [µg/mL] | Antibacterial Activity (MIC's), A [3] [µg/mL] | Antibacterial Activity (MIC's), E [4] [µg/mL] | Antibacterial Activity (MIC's), F [5] [µg/mL] | SMILES |
| --- | --- | --- | --- | --- | --- |
| 0.5 | 64 | 0.125 | 0.125 | 0.5 | COc1c(-c2cc3c(s2)S(=O)(=O)CCC3N)ccc2c(=O)c(C(=O)O)cn(C3CC3)c12.Cl (stereo not drawn) [Example 143, 7-(4-amino-7,7-dioxido-5,6-dihydro-4H-thieno[2,3-b]thiopyran-2-yl)-1-cyclopropyl-8-methoxy-4-oxo-1,4-dihydro-3-quinolinecarboxylic acid hydrochloride] |
| 0.25 | 0.5 | 0.25 | 0.25 | 0.125 | COc1c(-c2cc3c(s2)CCCC3N2CC(O)C2)ccc2c(=O)c(C(=O)O)cn(C3CC3)c12.Cl (stereo not drawn) [Example 198, 1-cyclopropyl-7-(4-(3-hydroxy-1-azetidinyl)-4,5,6,7-tetrahydro-1-benzothien-2-yl)-8-methoxy-4-oxo-1,4-dihydro-3-guinolinecarboxvlic acid hydrochloride] |
| 0.5 | 0.25 | 0.06 | 0.125 | 0.125 | COc1c(-c2sc3c(c2C)C(N)CCC3)ccc2c(=O)c(C(=O)O)cn(C3CC3)c12.Cl (stereo not drawn) [Example 232, 7-(4-amino-3-methyl-4,5,6,7-tetrahydro-1-benzothien-2-yl)-1-cyclopropyl-8-methoxy-4-oxo-1,4-dihydro-3-quinolinecarboxylic acid hydrochloride] |
| 1 | 8 | 0.03 | 1 | 0.5 | COc1c(-c2cc3c(s2)CC(=O)CC3)ccc2c(=O)c(C(=O)O)cn(C3CC3)c12 [Example 59, 1-cyclopropyl-8-methoxy-4-oxo-7-(6-oxo-4,5,6,7-tetrahydro-1-benzothien-2-yl)-1,4-dihydro-3-quinolinecarboxylic acid] |
| 0.125 | 1 | 0.03 | 0.5 | 0.5 | COc1c(-c2cc3c(s2)CCC(F)(F)C3N)ccc2c(=O)c(C(=O)O)cn(C3CC3)c12 (stereo not drawn) [Example 206, 7-(4-amino-5,5-difluoro-4,5,6,7-tetrahydro-1-benzothien-2-yl)-1-cyclopropyl-8-methoxy-4-oxo-1,4-dihydro-3-quinolinecarboxylic acid] |
| 0.06 | 0.25 | 0.004 | 0.015 | 0.06 | COc1c(-c2cc3c(s2)CCCC3CO)ccc2c(=O)c(C(=O)O)cn(C3CC3)c12 (stereo not drawn) [Example 110, 1-cyclopropyl-7-(4-(hydroxymethyl)-4,5,6,7-tetrahydro-1-benzothien-2-yl)-8-methoxy-4-oxo-1,4-dihydro-3-quinolinecarboxylic acid] |
